Laboratory results: US20180186755A1, “LYSYL OXIDASE-LIKE 2 INHIBITORS AND USES THEREOF” (PharmAkea, Inc., priority 2015, published 2018)

Experiments:
human LOXL2 = target: T1, human LOXL2 (Homo sapiens, UniProt Q9Y4K0); assay: Human LOXL2 amine oxidase activity assay (Amplex Red fluorescence); assay type: biochemical; details: concentrated conditioned media from CHO cells stably expressing human LOXL2; 2 h at 37° C. preincubation; DAP substrate
T1 construct: expressed in transfected cells; 10-20x concentrated conditioned media used as the enzyme source
T1 sequence (Q9Y4K0 26-774): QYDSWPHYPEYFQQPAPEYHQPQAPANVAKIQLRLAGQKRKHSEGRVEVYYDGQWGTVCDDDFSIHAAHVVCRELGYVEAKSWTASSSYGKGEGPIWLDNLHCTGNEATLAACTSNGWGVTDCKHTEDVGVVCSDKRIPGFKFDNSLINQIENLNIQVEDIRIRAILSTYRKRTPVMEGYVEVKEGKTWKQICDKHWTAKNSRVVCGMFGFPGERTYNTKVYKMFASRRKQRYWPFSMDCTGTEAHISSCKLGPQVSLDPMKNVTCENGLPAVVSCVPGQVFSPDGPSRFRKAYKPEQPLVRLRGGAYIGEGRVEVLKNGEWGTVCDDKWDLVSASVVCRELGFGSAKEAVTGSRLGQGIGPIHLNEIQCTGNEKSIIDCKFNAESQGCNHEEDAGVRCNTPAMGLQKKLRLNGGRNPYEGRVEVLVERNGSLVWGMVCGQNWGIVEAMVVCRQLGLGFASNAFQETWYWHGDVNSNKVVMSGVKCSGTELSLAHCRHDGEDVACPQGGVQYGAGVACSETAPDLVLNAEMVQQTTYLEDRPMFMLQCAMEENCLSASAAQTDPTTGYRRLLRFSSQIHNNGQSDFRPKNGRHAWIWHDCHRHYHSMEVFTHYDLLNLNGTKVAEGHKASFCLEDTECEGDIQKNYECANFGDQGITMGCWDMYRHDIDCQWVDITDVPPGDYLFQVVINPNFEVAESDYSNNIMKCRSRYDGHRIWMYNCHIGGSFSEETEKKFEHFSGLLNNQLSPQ
Outline: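 Enzyme source: 10-20× concentrated conditioned media from CHO cells stably expressing human LOXL2, preincubated with compound for 2 h at 37° C in 50 mM borate pH 8. Reaction started with 1,5-diaminopentane plus Amplex Red/HRP; fluorescence (ex 544/em 590) read kinetically for 1 hour, activity from linear slope.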

[1] = tested on: bleomycin-induced lung fibrosis in C57Bl/6 male mice; assay: Mouse oropharyngeal bleomycin model of lung fibrosis; assay type: in vivo; details: dosed prophylactically at 60 mg/kg p.o.
Protocol: Example B-3: Mouse Oropharyngeal Bleomycin Model of Lung Fibrosis
Lung fibrosis is induced in C57Bl/6 male mice by administering bleomycin (0.1-4 U/kg) via oropharyngeal instillation. Mice are either pretreated with vehicle or test compound (1 day to 1 hour) orally, intraperitoneally, intravenously or subcutaneously before bleomycin installation (prophylactic dosing) or 7-14 days post bleomycin instillation (therapeutic dosing). The route and frequency of dosing are based on previously determined pharmacokinetic properties for the LOXL2 inhibitor in mouse. After bleomycin instillation animals are monitored daily for weight loss and clinical signs for 14-28 days prior to sacrifice. […] For histological examination, lung slices are stained with Masson's trichrome or Picro-Sirius red to measure cross-linked collagen as an indicator of fibrosis and an Ashcroft score of lung fibrotic and inflammatory damage determined. In addition, immunohistochemistry of fibrotic proteins such as a-smooth muscle actin can be recorded. […] After the acid hydrolysis, 25-100 μl of the supernatant is dried down, resuspended in 25 μl water and the hydroxyproline content determined by the addition of 0.5 ml Chloramine T solution (140 mg Chloramine T in 6.5 ml ddH20+1 ml n-propanol+2.5 ml 1M sodium acetate) and incubation at room temperature for 20 min. […]

Compound | IC50 (human LOXL2) [µM] | efficacy in mouse oropharyngeal bleomycin model of lung fibrosis [1]
NCc1cc(Oc2cccc(C(=O)N3CCN(c4ccccc4)CC3)c2)ncn1 [Compound 1-72, (3-((6-(Aminomethyl)pyrimidin-4-yl)oxy)phenyl)(4-phenylpiperazin-1-yl)methanone] | < 0.1 | efficacious
Cl.NCc1cc(Oc2cccc(C(=O)NCc3ccnc(Cl)c3)c2)ncn1 [Compound 1-55, 3-((6-(Aminomethyl)pyrimidin-4-yl)oxy)-N-((2-chloropyridin-4-yl)methyl)benzamide] | < 0.1 | efficacious
NCc1cc(Oc2cccc3[nH]ccc23)ncn1 [Compound 1-19, (6-((1H-Indol-4-yl)oxy)pyrimidin-4-yl)methanamine] | < 0.1 | –
Cn1cc(-n2ccc3c(Oc4cc(CN)ncn4)cccc32)cn1 [Compound 1-32, (6-((1-(1-Methyl-1H-pyrazol-4-yl)-1H-indol-4-yl)oxy)pyrimidin-4-yl)methanamine] | < 0.1 | –
NCc1cc(Oc2cccc(C(=O)NCc3ccc(-c4ccc(F)cc4)cc3)c2)ncn1 [Compound 1-62, 3-((6-(Aminomethyl)pyrimidin-4-yl)oxy)-N-((4′-fluoro-[1,1′-biphenyl]-4-yl)methyl)benzamide] | < 0.1 | –
NCc1cc(NCc2cccc(C(=O)Nc3cccc(C(F)(F)F)c3)c2)ncn1 [Compound 1-96, 3-(((6-(Aminomethyl)pyrimidin-4-yl)amino)methyl)-N-(3-(trifluoromethyl)phenyl)benzamide] | < 0.1 | –
